The values below come from article PMC7696216, “Bi-Functional Alginate Oligosaccharide–Polymyxin Conjugates for Improved Treatment of Multidrug-Resistant Gram-Negative Bacterial Infections” (Pharmaceutics, 2020).

Where two headings read alike, the source gives them in different places.

For data set [1] the following is noted: in vivo; cited from earlier work.
Data set [2] concerns P. aeruginosa MDR 301. Type of data set: cell-based, Pseudomonas aeruginosa. The method, then:
(§1) The minimum inhibitory concentration (MIC) of colistin (as sulphate salt) and polymyxin B and their conjugates was determined using the broth microdilution method in MH broth in accordance with standard guidelines. Test organisms were suspended in MH broth (100 µL, 5 × 10^5 colony forming units (CFU)/mL) and incubated in 96-well microtitre plates in serial two-fold dilutions of the test compounds. […] Results were expressed as mode (n = 3). […] Selective activities of the polymyxins and OligoG–polymyxin conjugates were calculated as follows:Selectivity index (SI) = IC50 (μg/mL)/MIC (μg/mL).
(§2) In addition, alginate oligomer–colistin conjugates (3 mg/mL) were incubated in PBS at pH 7 containing bacterial alginate lyase (1 and 10 U/mL) at 37 °C for 24 h, before preparing microtitre plates as described above.
(§3) To study the antimicrobial efficacy of test compounds under more clinically relevant conditions, the MIC protocol was performed using AS medium instead of MH broth. The plates were incubated with resazurin as described above.

The subject of another data set is E. coli IR57. Type of data set: cell-based, Escherichia coli. The method, then:
as §1
(§4) To account for turbidity caused by mucin, resazurin dye solution (30 µL, 0.01% w/v in dH2O) was added to each well and incubated for a further 3 h at 37 °C. Colour changes were observed and recorded.
as §3

Another data set concerns K. pneumoniae IR25. Type of data set: cell-based, Klebsiella pneumoniae. The following applies: resazurin read-out. The method, then: as §1, §4
A general note: Alamar Blue is a resazurin reagent that responds to reducing activity.

The nature of data set [3]: Two-compartment static dialysis bag model, diffusion. Type of data set: physicochemical. The following applies: IC 10 mg/mL colistin base in PBS (5 mL), OC PBS (15 mL), 37 °C, 70 rpm, BCA assay, n = 3. The method, then: A two-compartment static dialysis bag model (adapted from Azzopardi et al.) was used to study the PK–PD profile of OligoG–colistin conjugates. First, the ability of the dialysis membrane to control diffusion of test compounds was assessed. […] The aseptically sealed beaker was incubated (37 °C, 70 rpm) for 48 h. Samples were collected at various time points from each compartment and stored at −20 °C prior to analysis of colistin content by BCA assay.

For data set [4], the system named is A. baumannii 7789. The data set is described as follows: Time-to-kill (TTK) in PK–PD model. Type of data set: cell-based, Acinetobacter baumannii. The following applies: 0.25 µg/mL colistin base (colistin sulphate at MIC; OligoG–E–colistin at 2 × MIC), n = 3. The method, then: A modified experimental set-up was used to investigate the concentration- and time-dependent antimicrobial activity of test compounds using a TTK assay (48 h). […] The OC contained MH broth inoculated with A. baumannii 7789 (5 × 10^5 CFU/mL). Samples were collected from the OC (0, 2, 4, 6, 24 and 48 h) and colony counts (CFU/mL) determined using drop counts. Treatments were considered bactericidal if the reduction in viable bacterial counts was ≥3 log10 CFU/mL (equivalent to 99.9% of the initial inoculum) and bacteriostatic if the decrease was <3 log10 CFU/mL [33, 34]. Growth (no test compounds) and sterility (no bacteria) controls were also performed.

The test system of data set [5] is P. aeruginosa R22. The data set is described as follows: Biofilm formation assay (CLSM, COMSTAT). Type of data set: cell-based, Pseudomonas aeruginosa. The conditions noted are these: 24 h. The method, then: To analyse the effect of test compounds on biofilm formation, solutions of test compounds in MH broth were inoculated (1:10) with P. aeruginosa R22 (standardised to 10^7 CFU/mL) in a Greiner glass-bottomed optical 96-well plate. The plate was then wrapped in parafilm and incubated (37 °C, 20 rpm) for 24 h. The supernatant was carefully removed and replaced with 10% v/v LIVE/DEAD stain in PBS prior to imaging. CLSM of Syto 9 (λex/λem maximum, 480/500 nm) and propidium iodide (λex/λem maximum, 490/635 nm) was performed using a Leica SP5 confocal microscope with ×63 lens (under oil) and a step size of 0.79 µm. Z-stack CLSM images were analysed using COMSTAT image analysis software and results were expressed as mean ± SEM (n = 15).

For another data set, the system named is P. aeruginosa NH57388A. The data set is described as follows: MIC, broth microdilution. Type of data set: cell-based, Pseudomonas aeruginosa. The method, then: as §1, §3
A general note: Dilution methods test growth across graded concentrations, often in twofold steps.

Data set [6] concerns P. aeruginosa R22. Type of data set: cell-based, Pseudomonas aeruginosa. The following applies: resazurin read-out. The method, then:
as §1, §4

Another data set deals with A. baumannii MDR ACB. Type of data set: cell-based, Acinetobacter baumannii. The following applies: resazurin read-out. The method, then: as §1, §4
Data set [7] deals with A. baumannii 7789. Type of data set: cell-based, Acinetobacter baumannii. The method, then:
as §1, §2, §3

The conditions of data set [8]: cited from earlier work. The method, then: In a clinical setting, binding of colistin to sputum biomolecules (e.g., mucin) in the airways could negatively impact antibiotic effectiveness and availability. […] A four-fold increase in the MIC of colistin was also reported when the assay was conducted in AS medium instead of MH broth, thought to be caused by bacterial growth disruption, structural modifications of lipopolysaccharides or direct colistin–mucin interactions. Alt ...

A further data set has as its system E. coli 5702. Description: MIC, broth microdilution. Type of data set: cell-based, Escherichia coli. The method, then:
as §1, §3

The subject of a further data set is E. coli AIM-1. Description: MIC, broth microdilution. Type of data set: cell-based, Escherichia coli. The method, then: as §1, §2
For data set [9], the system named is P. aeruginosa MDR 301. Description: Bacterial growth curves (48 h). The conditions noted are these: absorbance 600 nm hourly for 48 h, n = 3. Type of data set: cell-based, Pseudomonas aeruginosa. An excerpt:
Results were expressed as mean values (n = 3).

Setting [10] is: AS (artificial sputum) medium, resazurin read-out.
Setting [11] is: MH broth (Table S7 comparison with AS medium).
The mark [12] stands for this setting: alginate lyase in MH broth, 0 U/mL.
The mark [13] stands for this setting: alginate lyase in MH broth, 1 U/mL.
Setting [14] is: alginate lyase in MH broth, 10 U/mL.
Setting [15] is: pre-incubation with alginate lyase 0 U/mL (3 mg/mL in PBS pH 7, 37 °C, 24 h), then MIC in MH broth.
[16] abbreviates: pre-incubation with alginate lyase 1 U/mL (3 mg/mL in PBS pH 7, 37 °C, 24 h), then MIC in MH broth.
The mark [17] stands for this setting: pre-incubation with alginate lyase 10 U/mL (3 mg/mL in PBS pH 7, 37 °C, 24 h), then MIC in MH broth.
Setting [18] is: MH broth + porcine stomach (type II) mucin 0.2% w/v.
Setting [19] is: MH broth + porcine stomach (type II) mucin 2% w/v.

Regarding colistimethate sodium, the “plasma colistin concentration at steady-state” value in [1] is 0.5 to 4 µg/mL.

For colistin sulphate, the MIC in the data set with P. aeruginosa MDR 301 [2] (setting [10]) came to 2 μg/mL Drug Base; with P. aeruginosa MDR 301 [2] (setting [11]), 0.5 μg/mL Drug Base; with P. aeruginosa MDR 301 [2] (setting [12]), 0.063 μg/mL Drug Base; in the data set with P. aeruginosa MDR 301 [2] (setting [13]) it was 0.063 μg/mL Drug Base; against P. aeruginosa MDR 301 [2] (setting [14]), 0.25 μg/mL Drug Base; against P. aeruginosa MDR 301 [2] (setting [15]), 0.063 μg/mL Drug Base. For the same substance, the MIC was found to be 0.063 μg/mL Drug Base with P. aeruginosa MDR 301 [2] (setting [16]); 0.125 μg/mL Drug Base against P. aeruginosa MDR 301 [2] (setting [17]); 0.125 μg/mL Drug Base with E. coli IR57 (setting [10]); 0.125 μg/mL Drug Base against E. coli IR57 (setting [11]); 1 μg/mL Drug Base in the data set with E. coli IR57 (MH broth + porcine stomach (type II) mucin 0.2% w/v, resazurin read-out); 2 μg/mL Drug Base in the data set on E. coli IR57 (MH broth + porcine stomach (type II) mucin 2% w/v, resazurin read-out). Further, the MIC was determined as 0.125 μg/mL Drug Base in the data set with E. coli IR57 (MH broth, mucin 0%, resazurin read-out); 1 μg/mL Drug Base in the data set on K. pneumoniae IR25 (setting [18]); 64 μg/mL Drug Base with K. pneumoniae IR25 (setting [19]); 1 μg/mL Drug Base in the data set on P. aeruginosa NH57388A (setting [10]); 0.25 μg/mL Drug Base against P. aeruginosa NH57388A (setting [11]); 2 μg/mL Drug Base in the data set with P. aeruginosa R22 [6] (setting [18]). For the same substance, the MIC with P. aeruginosa R22 [6] (setting [19]) is 16 μg/mL Drug Base; in the data set with P. aeruginosa R22 [6] (MH broth, mucin 0%) it was 0.5 μg/mL Drug Base; in the data set on A. baumannii MDR ACB (setting [18]), 1 μg/mL Drug Base; in the data set with A. baumannii MDR ACB (setting [19]), 16 μg/mL Drug Base; in the data set on A. baumannii MDR ACB (MH broth, mucin 0%) it was 0.5 μg/mL Drug Base; with A. baumannii 7789 [7] (setting [10]), 1 μg/mL Drug Base. The MIC in the data set on A. baumannii 7789 [7] (setting [11]) is 0.25 μg/mL Drug Base; against A. baumannii 7789 [7] (setting [12]), 0.002 μg/mL Drug Base; in the data set with A. baumannii 7789 [7] (setting [13]) it was 0.004 μg/mL Drug Base; against A. baumannii 7789 [7] (setting [14]), 0.004 μg/mL Drug Base; against A. baumannii 7789 [7] (setting [15]) it was 0.002 μg/mL Drug Base; in the data set on A. baumannii 7789 [7] (setting [16]), 0.002 μg/mL Drug Base. Moreover, the MIC in the data set on A. baumannii 7789 [7] (setting [17]) is on record as 0.002 μg/mL Drug Base; in the data set with E. coli 5702 (setting [10]) it was 0.125 μg/mL Drug Base; in the data set on E. coli 5702 (setting [11]), 0.031 μg/mL Drug Base; against E. coli AIM-1 (setting [12]), 0.00006 μg/mL Drug Base; in the data set on E. coli AIM-1 (setting [13]), 0.00006 μg/mL Drug Base; against E. coli AIM-1 (setting [14]) it was 0.0002 μg/mL Drug Base. The MIC in the data set with E. coli AIM-1 (broth microdilution, MH broth, 5 × 10^5 CFU/mL, 16–20 h, mode (n = 3)) is recorded as <0.008 μg/mL Drug Base; with E. coli AIM-1 (setting [15]), 0.00006 μg/mL Drug Base; in the data set on E. coli AIM-1 (setting [16]), 0.001 μg/mL Drug Base; against E. coli AIM-1 (setting [17]), 0.0002 μg/mL Drug Base. Moreover, the “time at which 1 mg/mL in the OC was reached” value in data set [3] amounted to 2.83 h. Also, the “reduction in viable bacterial counts after 4 h” value with A. baumannii 7789 [4] is < 3 log10 CFU/mL. In addition, the “biofilm biomass compared to untreated control” value in the data set with P. aeruginosa R22 [5] (2 × MIC (colistin sulphate up to 2 × MIC), n = 15) is on record as “no significant change”. In addition, the biofilm roughness result with P. aeruginosa R22 [5] (conjugates ≥MIC, colistin sulphate MIC, n = 15, p < 0.05) is recorded as “significantly increased”. Besides, the “increase in MIC values when mucin was added to the bacterial culture medium” value in data set [8] is listed as > 100 fold. For the same substance, the “concentration required for growth inhibition (up to >48 h)” value with P. aeruginosa MDR 301 [9] was ≥ 8 × MIC.
